Data set [1] concerns S. epidermidis ATCC 12228. Description: microbe, parasite or virus in culture. In kind it is cell-based, Staphylococcus epidermidis. The note with it: S. epidermidis ATCC 12228, CLSI procedure, triplicate, read-out: MIC. The method, then: (§1) The minimal inhibitory concentrations (MICs) assay was performed according to the CLSI procedures with the final peptide concentrations of 256, 128, 64, 32, 16, 8, 4, 2, 1, and 0.5 μg/mL, respectively. All tests were conducted in triplicate.

The subject of data set [2] is Escherichia coli ATCC 25922. Description: microbe, parasite or virus in culture. The format is cell-based. The note with it: Escherichia coli ATCC 25922, CLSI procedure, triplicate, read-out: MIC. The method, then: as §1
In data set [3] the test system is Staphylococcus aureus ATCC 43300. Description: microbe, parasite or virus in culture. The format is cell-based. The conditions noted are these: S. aureus ATCC 43300, CLSI procedure, triplicate, read-out: MIC. The method, then: as §1
Data set [4] deals with S. aureus ATCC 43300. Description: Bactericidal kinetics (time-killing curves). The format is cell-based, Staphylococcus aureus. The conditions noted are these: FNZ 1×, 2×, 4× MIC; ampicillin 2× MIC; S. aureus ATCC 43300. The method, then: The S. aureus ATCC 43300 in logarithmic growth stage was diluted to a final concentration of 10^6 CFU/mL. […] Samples were taken at 0, 0.5, 1, 2, 4, 6, 8, 10, 20, and 24 h, serially diluted, and visible colonies were counted on MHA plates.

In data set [5] the test system is S. aureus ATCC 43300. Description: microbe, parasite or virus in culture. The note with it: S. aureus ATCC 43300; for MIC: Staphylococcus aureus, ATCC43300, read-out: MICa (MIC of drug alone). The format is cell-based, Staphylococcus aureus. The method, then:
The effects of combination were evaluated by calculating the FICI. FICI ≤ 0.5 was defined as synergy, 0.5 < FICI ≤ 1 was defined as additivity, 1 < FICI ≤ 4 was defined as indifference, and FICI > 4 was defined as antagonism.

Another data set concerns S. aureus ATCC 25923. Description: microbe, parasite or virus in culture. In kind it is cell-based, Staphylococcus aureus. The conditions noted are these: S. aureus ATCC 25923, CLSI procedure, triplicate, read-out: MIC. The method, then: as §1
The subject of the next data set is S. aureus CVCC 546. The data set can be described thus: microbe, parasite or virus in culture. In kind it is cell-based, Staphylococcus aureus. The conditions noted are these: S. aureus CVCC 546, CLSI procedure, triplicate, read-out: MIC. The method, then:
as §1

For another data set, the system named is S. aureus E48. The data set can be described thus: microbe, parasite or virus in culture. The format is cell-based, Staphylococcus aureus. The conditions noted are these: S. aureus E48, CLSI procedure, triplicate, read-out: MIC. The method, then: as §1
In data set [6] the test system is Salmonella enterica ATCC 13076. The data set can be described thus: Minimal inhibitory concentration (MIC). In kind it is cell-based. The conditions noted are these: CLSI procedure, triplicate. The method, then: as §1
For data set [7], the system named is Pseudomonas aeruginosa CICC 20625. Description: Minimal inhibitory concentration (MIC). The format is cell-based. The conditions noted are these: CLSI procedure, triplicate. The method, then:
as §1

For data set [8], the system named is S. aureus ATCC 43300. Description: Salts stability (MIC after incubation with Na+ or Mg2+). In kind it is cell-based, Staphylococcus aureus. The note with it: 37 °C, 1 h, MIC vs S. aureus ATCC 43300, triplicate, read-out: MIC after treatment.
Data set [9] deals with G+ bacteria (S. aureus, S. hyicus, S. agalactiae, S. epidermidis). The data set can be described thus: MIC, summary over Gram-positive bacteria. The note with it: range over S. aureus. In kind it is cell-based. The method, then:
as §1

Data set [10] relates to S. aureus ATCC 43300. The data set can be described thus: Stability in mouse serum (MIC after treatment). The note with it: mouse serum (25%), 1–4 h. The format is in vitro ADME, Staphylococcus aureus. The method, then: (§2) The tolerance of FNZ to temperature and pH was evaluated. The stability of FNZ in simulated gastric fluid, artificial intestinal fluid and mouse serum was carried out as previously described. […] All assays were conducted in triplicate.

The subject of data set [11] is S. aureus ATCC 43300. Description: pH stability (MIC after pH treatment). The note with it: MIC vs S. aureus ATCC 43300, triplicate. The format is physicochemical, Staphylococcus aureus. The method, then:
as §2

The subject of data set [12] is S. aureus ATCC 43300. Description: Stability in simulated gastric fluid (MIC after treatment). The format is in vitro ADME, Staphylococcus aureus. The note with it: 1 h, MIC vs S. aureus ATCC 43300, triplicate. The method, then:
as §2

Another data set has as its system RAW264.7 cells. The data set can be described thus: Cytotoxicity, MTT assay. The format is cell-based, mouse. The conditions noted are these: at 128 μg/mL, n = 3. From the text:
The MTT assay was used to test the cytotoxicity of FNZ to the RAW 264.7 cells.

Data set [13] concerns Gram-negative bacteria (E. coli, S. enterica, P. aeruginosa). The data set can be described thus: MIC, summary over Gram-negative bacteria. The format is cell-based. The method, then: as §1
The subject of data set [14] is S. aureus ATCC 43300. The data set can be described thus: Thermal stability (MIC after heat treatment). In kind it is physicochemical, Staphylococcus aureus. The note with it: MIC vs S. aureus ATCC 43300, triplicate. The method, then:
as §2

Values joined by “and” are separate entries in the source; they are usually repeats but may differ in a detail not shown here. Identical values can stand only once. Like-named read-outs stand apart in the source and are kept apart here. Bridge positions count the residues as written; N and C are the ends. Ends that are not written are not given here.

As to `CC1(C)S[C@@H]2[C@H](NC(=O)[C@H](N)c3ccccc3)C(=O)N2[C@H]1C(=O)O` [Ampicillin, ampicillin], the MIC in data set [1] (Staphylococcus epidermidis, ATCC12228) was 2 µg/mL and 2.48 µM; in [2] (ATCC25922), 1 µg/mL and 1.24 µM; in [3] (Staphylococcus aureus, ATCC43300) it was 2 µg/mL and 2.48 µM; in the data set on S. aureus ATCC 43300 [5] (checkerboard, 37 °C, 16 h), 2 µg/mL; in the data set on S. aureus ATCC 25923 (Staphylococcus aureus, ATCC25923), 0.25 µg/mL and 0.62 µM; in the data set with S. aureus CVCC 546 (Staphylococcus aureus, CVCC546) it was 0.25 µg/mL and 0.62 µM. For the same compound, the MIC in the data set with S. aureus E48 (Staphylococcus aureus) was 0.25 µg/mL and 0.62 µM. The “Regrowth (rebound of colonies) up to 24 h” value in the data set with S. aureus ATCC 43300 [4] was “rebound situation was observed”. The “Combination effect with FNZ (in words)” value with S. aureus ATCC 43300 [5] (checkerboard) was “synergistic effect”. Besides, the FIC in the data set on S. aureus ATCC 43300 [5] (combination FNZ + Amp) was 0.063.

Consider “FGFGCNGPWNEDDLRCHNHCKSIKGYKGGYCAKGGFVCKCY (disulfide 5-31, 16-38, 20-40) [FNZ]”, for which the MIC in data set [6] was greater than 28.05 µM; in [7] it was greater than 28.05 µM; in data set [1] it was 1.75 µM; in the data set on S. aureus ATCC 43300 [8] (50 mM Mg2+), 1.75 µM; with S. aureus ATCC 43300 [8] (50 mM Na+) it was 1.75 µM; with S. aureus ATCC 43300 [8] (100 mM Mg2+), 1.75 µM. Also, the MIC in the data set on S. aureus ATCC 43300 [8] (100 mM Na+) is on record as 1.75 µM; in the data set with S. aureus ATCC 43300 [8] (150 mM Mg2+), 1.75 µM; with S. aureus ATCC 43300 [8] (150 mM Na+), 1.75 µM; with S. aureus ATCC 43300 [8] (300 mM Mg2+), 3.5 µM; in the data set with S. aureus ATCC 43300 [8] (300 mM Na+) it was 1.75 µM; in the data set with S. aureus ATCC 43300 [8] (500 mM Mg2+) it was greater than 7 µM. Further, the MIC was 3.5 µM with S. aureus ATCC 43300 [8] (500 mM Na+); greater than 28.05 µM in data set [2]; 1.75 µM in [3]; 1.75 µM in the data set on S. aureus ATCC 25923; 1.75 µM in the data set on S. aureus CVCC 546; 0.88 µM in the data set on S. aureus E48. Besides, the “MICs, G+ bacteria” value in data set [9] lay within 4 to 8 µg/mL. For the same compound, the “Serum stability (in words)” value in the data set on S. aureus ATCC 43300 [10] (MIC read-out) is listed as “Stable^a”. Further, the MIC after treatment was 8 μg/mL and 1.75 μM against S. aureus ATCC 43300 [10] (MIC vs S. aureus ATCC 43300, triplicate); 1.75 µM in the data set on S. aureus ATCC 43300 [11] (pH 2); 1.75 µM in the data set with S. aureus ATCC 43300 [11] (pH 4); 1.75 µM in the data set on S. aureus ATCC 43300 [11] (pH 6); 1.75 µM with S. aureus ATCC 43300 [11] (pH 8); 3.5 µM against S. aureus ATCC 43300 [11] (pH 10). Further, the MIC after treatment was 8 μg/mL and 1.75 μM with S. aureus ATCC 43300 [12]; 1.75 µM against S. aureus ATCC 43300 [14] (20 °C for 1 h); 1.75 µM in the data set with S. aureus ATCC 43300 [14] (40 °C for 1 h); 1.75 µM against S. aureus ATCC 43300 [14] (60 °C for 1 h); 1.75 µM in the data set on S. aureus ATCC 43300 [14] (80 °C for 1 h); 3.5 µM in the data set on S. aureus ATCC 43300 [14] (100 °C for 1 h). Moreover, the FIC with S. aureus ATCC 43300 [5] (combination FNZ + Amp) is reported as 0.016; in the data set on S. aureus ATCC 43300 [5] (combination FNZ + Cip), 0.031; in the data set on S. aureus ATCC 43300 [5] (combination FNZ + Kan), 0.063; in the data set on S. aureus ATCC 43300 [5] (combination FNZ + Van), 0.125. In the data set with RAW264.7 cells, the “Cell viability (survival)” value was 88.56%. The “MICs, Gram-negative bacteria” value in [13] is greater than 128 µg/mL.

Turning to `NC[C@H]1O[C@H](O[C@H]2[C@H](O)[C@@H](O[C@H]3O[C@H](CO)[C@@H](O)[C@H](N)[C@H]3O)[C@H](N)C[C@@H]2N)[C@H](O)[C@@H](O)[C@@H]1O` [Kan, kanamycin], the “MICa (MIC of drug alone)” value in the data set with S. aureus ATCC 43300 [5] (checkerboard, 37 °C, 16 h) came to 64 µg/mL. Besides, the “Combination effect with FNZ (in words)” value in the data set on S. aureus ATCC 43300 [5] (checkerboard) is given as “synergistic effect”. For the same compound, the FIC in the data set with S. aureus ATCC 43300 [5] (combination FNZ + Kan) stood at 0.008. Further, the “MICc (MIC of drug used in combination)” value in the data set on S. aureus ATCC 43300 [5] (combination FNZ + Kan, checkerboard, 37 °C, 16 h) turned out to be 0.5 µg/mL.

On to `O=C(O)c1cn(C2CC2)c2cc(N3CCNCC3)c(F)cc2c1=O` [Cip, ciprofloxacin], for which the MIC in the data set on S. aureus ATCC 43300 [5] (checkerboard, 37 °C, 16 h) worked out at 0.25 µg/mL. Besides, the “MICc (MIC of drug used in combination)” value in the data set on S. aureus ATCC 43300 [5] (combination FNZ + Cip, checkerboard, 37 °C, 16 h) amounted to 0.375 µg/mL.

The values above are taken from paper PMC10135057, “Molecular Modification of Kex2 P1’ Site Enhances Expression and Druggability of Fungal Defensin” (Antibiotics, 2023).
